Test results taken from BindingDB's records for doi:10.1016/j.bmcl.2007.02.075 (Bayer Research Center, 2007).

Molecular target: RAC-alpha serine/threonine-protein kinase (Homo sapiens, UniProt P31749)
Assay: Inhibition of pAkt

RAC-alpha serine/threonine-protein kinase, sequence (P31749 whole entry): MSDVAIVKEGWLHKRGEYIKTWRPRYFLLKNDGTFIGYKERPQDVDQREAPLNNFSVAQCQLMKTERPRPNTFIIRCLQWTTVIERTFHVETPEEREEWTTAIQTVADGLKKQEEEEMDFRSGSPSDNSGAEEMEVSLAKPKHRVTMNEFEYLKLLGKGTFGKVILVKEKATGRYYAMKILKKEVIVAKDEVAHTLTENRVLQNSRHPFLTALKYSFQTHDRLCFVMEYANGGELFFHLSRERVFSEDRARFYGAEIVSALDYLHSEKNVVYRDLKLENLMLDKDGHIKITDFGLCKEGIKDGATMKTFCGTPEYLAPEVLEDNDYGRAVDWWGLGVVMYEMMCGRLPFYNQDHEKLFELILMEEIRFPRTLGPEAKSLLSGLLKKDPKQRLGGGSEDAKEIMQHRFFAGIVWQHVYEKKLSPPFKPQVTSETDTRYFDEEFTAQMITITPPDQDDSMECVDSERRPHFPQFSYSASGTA

IC50 | Structure (SMILES)
24 nM | CNC(=O)Nc1ccc(CNc2ncsc2C(=O)Nc2ccc3c(c2)OC(F)(F)O3)cn1 [1-(5-((5-((2,2-difluorobenzo[d][1,3]dioxol-5-yl)carbamoyl)thiazol-4-ylamino)methyl)pyridin-2-yl)-3-methylurea]
15 nM | CNC(=O)Nc1ccc(CNc2c(C(=O)Nc3ccc(SC(F)(F)F)cc3)cnn2C)cn1 [1-methyl-3-(5-((1-methyl-4-((4-(trifluoromethylthio)phenyl)carbamoyl)-1H-pyrazol-5-ylamino)methyl)pyridin-2-yl)urea]
81 nM | CCNC(=O)Nc1ccc(CNc2ncsc2C(=O)Nc2ccc3c(c2)OC(F)(F)O3)cn1 [1-(5-((5-((2,2-difluorobenzo[d][1,3]dioxol-5-yl)carbamoyl)thiazol-4-ylamino)methyl)pyridin-2-yl)-3-ethylurea]
